Structures are written as SMILES. “And” between values parts separate entries of the source, which are not always exact repeats. Equal values may be shown once. Read-outs that look alike come from different tables or passages of the source.

As a reminder, the IC50 is the concentration at which inhibition is half-maximal.

Assay [1] deals with T1, AHR (Homo sapiens, UniProt P35869).
T1 construct: U87 MG glioblastoma cells (ATCC #HTB-14) endogenously expressing AHR; endogenous in cells; host or cells: U87 MG glioblastoma cells (ATCC #HTB-14)
T1 sequence (P35869 11-848): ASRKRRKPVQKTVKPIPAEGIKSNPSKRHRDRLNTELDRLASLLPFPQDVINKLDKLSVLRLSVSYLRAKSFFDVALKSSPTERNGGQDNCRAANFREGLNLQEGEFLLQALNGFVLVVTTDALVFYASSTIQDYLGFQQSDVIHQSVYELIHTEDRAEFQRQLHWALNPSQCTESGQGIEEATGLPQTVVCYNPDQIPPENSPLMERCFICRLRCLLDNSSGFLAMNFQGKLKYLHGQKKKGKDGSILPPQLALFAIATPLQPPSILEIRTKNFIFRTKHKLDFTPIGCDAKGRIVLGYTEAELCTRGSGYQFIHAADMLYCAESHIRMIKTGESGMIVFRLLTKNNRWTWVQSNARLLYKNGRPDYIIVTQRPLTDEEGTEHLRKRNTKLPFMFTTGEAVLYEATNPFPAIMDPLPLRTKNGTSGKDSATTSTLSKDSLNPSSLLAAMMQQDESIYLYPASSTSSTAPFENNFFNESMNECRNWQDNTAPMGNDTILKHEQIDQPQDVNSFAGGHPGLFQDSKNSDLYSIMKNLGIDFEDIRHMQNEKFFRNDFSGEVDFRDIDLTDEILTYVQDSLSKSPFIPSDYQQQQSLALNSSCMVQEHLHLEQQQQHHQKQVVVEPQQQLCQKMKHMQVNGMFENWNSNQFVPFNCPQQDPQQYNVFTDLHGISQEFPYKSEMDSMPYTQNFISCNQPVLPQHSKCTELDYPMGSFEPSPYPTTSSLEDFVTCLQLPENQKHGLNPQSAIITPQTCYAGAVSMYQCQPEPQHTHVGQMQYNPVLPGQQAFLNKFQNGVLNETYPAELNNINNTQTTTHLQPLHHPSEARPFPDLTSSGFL
The assay can be described thus: In vitro assay 1: antagonism in human cell line (AHR transactivation, firefly luciferase reporter, kynurenic acid prestimulated). The class given is cell-based. The conditions noted are these: AHR Antagonism Human IC50 [M]. The method, boiled down: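 U87 MG glioblastoma cells with endogenous AHR, stably carrying a DRE-driven firefly luciferase reporter and constitutive Renilla reporter, prestimulated with kynurenic acid before compound addition. Firefly and Renilla read by dual luciferase; Renilla flags toxicity; normalized to controls (150 μM kynurenic acid + 5 μM staurosporine as full inhibition); repeat values averaged or median.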

In assay [2] the target is T2, AHR (Mus musculus, UniProt P30561).
T2 sequence (P30561 1-848 P471L/N533S/M589L): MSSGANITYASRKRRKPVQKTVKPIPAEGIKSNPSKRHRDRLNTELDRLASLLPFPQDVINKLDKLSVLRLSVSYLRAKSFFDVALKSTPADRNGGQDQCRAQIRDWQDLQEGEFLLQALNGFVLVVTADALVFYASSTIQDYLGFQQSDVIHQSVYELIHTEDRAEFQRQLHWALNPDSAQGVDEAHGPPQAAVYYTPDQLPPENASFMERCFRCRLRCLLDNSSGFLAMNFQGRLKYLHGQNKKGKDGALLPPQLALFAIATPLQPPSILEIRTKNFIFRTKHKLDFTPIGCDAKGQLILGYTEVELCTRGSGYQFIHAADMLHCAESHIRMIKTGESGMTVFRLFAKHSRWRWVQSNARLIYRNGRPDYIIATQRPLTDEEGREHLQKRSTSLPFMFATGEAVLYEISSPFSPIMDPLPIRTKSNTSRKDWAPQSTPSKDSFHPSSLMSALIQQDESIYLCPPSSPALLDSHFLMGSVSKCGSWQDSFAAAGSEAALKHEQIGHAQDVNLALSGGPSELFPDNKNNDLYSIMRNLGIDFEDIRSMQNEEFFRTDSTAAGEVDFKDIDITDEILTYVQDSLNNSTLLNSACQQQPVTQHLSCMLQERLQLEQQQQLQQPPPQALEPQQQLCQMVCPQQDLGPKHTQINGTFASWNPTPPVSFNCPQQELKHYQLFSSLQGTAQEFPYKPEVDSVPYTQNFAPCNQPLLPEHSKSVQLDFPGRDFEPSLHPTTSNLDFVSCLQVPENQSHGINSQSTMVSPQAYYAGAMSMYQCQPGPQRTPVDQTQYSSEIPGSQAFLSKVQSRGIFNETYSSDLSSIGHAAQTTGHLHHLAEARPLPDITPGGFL
As to the kind of experiment: In vitro assay 3: antagonism in mouse cell line (AHR transactivation, firefly luciferase reporter, kynurenic acid prestimulated). The format is cell-based. Summed up:
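Mouse cells stably carrying a DRE-driven AHR-inducible firefly luciferase reporter were prestimulated with the endogenous agonist kynurenic acid before compound addition. Luciferase read by SteadyGlo; cells without kynurenic acid served as full-inhibition control, with normalization to positive and negative controls. Repeat tests reported as mean or median.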
On the technique in general: In a reporter assay the amount or activity of a reporter protein is the signal.

[3] abbreviates: Hepa 1c1c7 cells, 200 μM kynurenic acid, 20 hours, firefly luciferase reporter, read-out: AHR Antagonism Mouse IC50.
Setting [4] is: mouse Hepa 1c1c7 cells, 200 μM kynurenic acid, 20 hours, read-out: AHR Antagonism Mouse IC50.

`COc1ccc(-c2nc3c4cccc(Br)c4nc(N[C@H](C)C(=O)N4C[C@@H]5C[C@H]4CN5C)n3n2)cc1` [Example 901, (2R)-2-{[7-bromo-2-(4-methoxyphenyl)[1,2,4]triazolo[1,5-c]quinazolin-5-yl]amino}-1-[(1S,4S)-5-methyl-2,5-diazabicyclo[2.2.1]heptan-2-yl]propan-1-one]: the IC50 against AHR [1] (firefly luciferase reporter) was found to be 2.88e-09 M; at AHR [2] (setting [3]) it was 0.00479 µM.

`Cn1cc(-c2nc3c4cccc(Br)c4nc(N[C@@H]4CCCNC4=O)n3n2)cn1` [Example 221, (3R)-3-{[7-bromo-2-(1-methyl-1H-pyrazol-4-yl)[1,2,4]triazolo[1,5-c]quinazolin-5-yl]amino}piperidin-2-one]: the IC50 was 3.46e-07 M against AHR [1] and 0.653 µM on AHR [2] (setting [4]).

Regarding `CC[C@@H](Nc1nc2c(Br)cccc2c2nc(-c3cnn(C)c3)nn12)C(N)=O` [Example 696, (2R)-2-{[7-bromo-2-(1-methyl-1H-pyrazol-4-yl)[1,2,4]triazolo[1,5-c]quinazolin-5-yl]amino}butanamide], the IC50 at AHR [1] turned out to be 3.23e-09 M; at AHR [2] (setting [4]), 0.00897 µM.

In the case of `O=C1NCCCC[C@@H]1Nc1nc2ccccc2c2nc(-c3cc(Cl)ccc3OC(F)(F)F)nn12` [Example 498, (3S)-3-({2-[5-chloro-2-(trifluoromethoxy)phenyl][1,2,4]triazolo[1,5-c]quinazolin-5-yl}amino)azepan-2-one], the IC50 against AHR [1] was above 2e-05 M; at AHR [2] (setting [4]), 0.7 µM.

In the case of `CCCNC(=O)[C@H](C)Nc1nc2c(Br)cccc2c2nc(-c3ccc(Cl)cc3OC(F)F)nn12` [Example 802, N^2-{7-bromo-2-[4-chloro-2-(difluoromethoxy)phenyl][1,2,4]triazolo[1,5-c]quinazolin-5-yl}-N-propyl-L-alaninamide], the IC50 stood at 4.76e-08 M against AHR [1] (firefly luciferase reporter) and 0.0125 µM at AHR [2] (setting [3]).

With `COc1cccc(-c2nc3c4cc(C)ccc4nc(N[C@@H]4CCCCNC4=O)n3n2)c1` [Example 154, (3R)-3-{[2-(3-methoxyphenyl)-9-methyl[1,2,4]triazolo[1,5-c]quinazolin-5-yl]amino}azepan-2-one], the results for the IC50 on AHR [1] and on AHR [2] (setting [4]) were 2.18e-09 M and 0.00116 µM, respectively.

On to `CS(=N)(=O)c1ccc(-c2nc3c4ccccc4nc(N[C@@H]4CCCCNC4=O)n3n2)cc1` (single isomer, unassigned) [Example 307], for which the results for the IC50 against AHR [1] and on AHR [2] (setting [4]) were 1.35e-07 M and 0.0847 µM, respectively.

`CC(C)S(=O)(=O)c1cccc2c1nc(N[C@@H]1CNCCNC1=O)n1nc(-c3cnn(C)c3)nc21` [Example 943, (6R)-6-{[2-(1-methyl-1H-pyrazol-4-yl)-7-(propane-2-sulfonyl)[1,2,4]triazolo[1,5-c]quinazolin-5-yl]amino}-1,4-diazepan-5-one]: the IC50 against AHR [1] (firefly luciferase reporter) stood at 9.47e-07 M; at AHR [2] (setting [3]), 2.79 µM.

As for `CN1CCCC[C@@H](Nc2nc3c(C(F)(F)F)cccc3c3nc(-c4cnn(C)c4)nn23)C1=O` [Example 739, (3R)-1-methyl-3-{[2-(1-methyl-1H-pyrazol-4-yl)-7-(trifluoromethyl)[1,2,4]triazolo[1,5-c]quinazolin-5-yl]amino}azepan-2-one], the concentration for half-maximal inhibition (IC50) was 6.64e-10 M at AHR [1] and 0.0014 µM on AHR [2] (setting [4]).

Consider `C[S+]([O-])c1ccccc1-c1nc2c3ccccc3nc(N[C@@H]3CCCCNC3=O)n2n1` (mixture of isomers) [Example 648, (3R)-3-[(2-{2-[methanesulfinyl]phenyl}[1,2,4]triazolo[1,5-c]quinazolin-5-yl)amino]azepan-2-one], for which the IC50 against AHR [1] stood at 6.89e-09 M; at AHR [2] (setting [4]) it was 0.00363 µM.

Consider `O=C1NCCCC[C@H]1Nc1nc2c(Br)cccc2c2nc(-c3cn[nH]c3)nn12` [Example 579, (3R)-3-{[7-bromo-2-(1H-pyrazol-4-yl)[1,2,4]triazolo[1,5-c]quinazolin-5-yl]amino}azepan-2-one], for which the IC50 at AHR [1] came out at 1.13e-08 M; at AHR [2] (setting [4]), 0.0681 µM.

With `COCCNC(=O)[C@H](Nc1nc2c(Br)cccc2c2nc(-c3cnn(C)c3)nn12)C(C)C` [Example 929, N^2-[7-bromo-2-(1-methyl-1H-pyrazol-4-yl)[1,2,4]triazolo[1,5-c]quinazolin-5-yl]-N-(2-methoxyethyl)-D-valinamide], the figures for the IC50 at AHR [1] (firefly luciferase reporter) and on AHR [2] (setting [3]) were 3.93e-08 M and 0.0109 µM, respectively.

As for `CCC[C@@H](Nc1nc2ccccc2c2nc(-c3ccc(OC)cc3OC(F)(F)F)nn12)C(=O)NC` [Example 510, N^2-{2-[4-methoxy-2-(trifluoromethoxy)phenyl][1,2,4]triazolo[1,5-c]quinazolin-5-yl}-N-methyl-D-norvalinamide], the results for the IC50 against AHR [1] and at AHR [2] (setting [4]) were 5.39e-08 M and 0.0117 µM, respectively.

Take `Cn1cncc1-c1nc2c3ccccc3nc(N[C@@H]3CCCCNC3=O)n2n1` [Example 610, (3R)-3-{[2-(1-methyl-1H-imidazol-5-yl)[1,2,4]triazolo[1,5-c]quinazolin-5-yl]amino}azepan-2-one]: the IC50 on AHR [1] is 2.44e-07 M; on AHR [2] (setting [4]), 0.0865 µM.

With `CS(=N)(=O)c1ccccc1-c1nc2c3ccccc3nc(N[C@@H]3CCCCNC3=O)n2n1` (single isomer, unassigned) [Example 662], the IC50 against AHR [1] is 6.86e-08 M; at AHR [2] (read-out: AHR Antagonism Mouse IC50, mouse Hepa 1c1c7 cells, 200 μM kynurenic acid, 20 hours), 0.0704 µM.

In the case of `Cn1cc(-c2nc3c4cccc(Br)c4nc(N[C@@H]4CCCCNC4=O)n3n2)cn1` [Example 212, (3R)-3-{[7-bromo-2-(1-methyl-1H-pyrazol-4-yl)[1,2,4]triazolo[1,5-c]quinazolin-5-yl]amino}azepan-2-one], the IC50 was determined as 9.71e-10 M on AHR [1] and 0.00249 µM on AHR [2] (setting [4]).

For the compound `O=C1NCCCC[C@H]1Nc1nc2ccccc2c2nc(-c3cnn(CC4CC4)c3)nn12` [Example 602, (3R)-3-({2-[1-(cyclopropylmethyl)-1H-pyrazol-4-yl][1,2,4]triazolo[1,5-c]quinazolin-5-yl}amino)azepan-2-one], the IC50 was 6.81e-09 M against AHR [1] and 0.00269 µM at AHR [2] (setting [4]).

For the compound `O=C1NCCNC[C@H]1Nc1nc2c(Br)cccc2c2nc(-c3cnn(C(F)F)c3)nn12` [Example 978, (6R)-6-({7-bromo-2-[1-(difluoromethyl)-1H-pyrazol-4-yl][1,2,4]triazolo[1,5-c]quinazolin-5-yl}amino)-1,4-diazepan-5-one], the figures for the IC50 against AHR [1] (firefly luciferase reporter) and at AHR [2] (setting [3]) were 2.03e-09 M and 0.00134 µM, respectively.

For `CCCCNC(=O)[C@@H](CC)Nc1nc2c(Br)cccc2c2nc(-c3ccc(Cl)cc3OC(F)(F)F)nn12` [Example 814, (2R)-2-({7-bromo-2-[4-chloro-2-(trifluoromethoxy)phenyl][1,2,4]triazolo[1,5-c]quinazolin-5-yl}amino)-N-butylbutanamide], the IC50 on AHR [1] (firefly luciferase reporter) was 2.5e-08 M; on AHR [2] (setting [3]), 0.011 µM.

Take `Cn1cc(-c2nc3c4ccccc4nc(NC4CCCNC4=O)n3n2)cn1` (single isomer, unassigned) [Example 21, 3-{[2-(1-methyl-1H-pyrazol-4-yl)[1,2,4]triazolo[1,5-c]quinazolin-5-yl]amino}piperidin-2-one]: the half-inhibitory concentration (IC50) was 1.29e-05 M at AHR [1]; > 20 µM and 19.7 µM on AHR [2] (setting [4]).

The values are drawn from US20230113037A1 (Bayer Aktiengesellschaft, priority 2019, published 2023).
